From patent publication US20160084820A1, “METHODS OF TREATING OR PREVENTING PERIODONTITIS AND DISEASES ASSOCIATED WITH PERIODONTITIS” (priority 2010, published 2016)
Where two headings read alike, the source gives them in different places.

Tests used:
[1] = system: GSK3β Ser9-phosphorylation; test: GSK3β Ser9 phosphorylation ELISA in macrophages; assay type: cell-based, mouse; settings: PKI-6-22 1 μM; PD98059 25 μM
Experimental: PKA activity in lysates of activated cells was determined using the ProFluor™ PKA assay, according to the instructions of the manufacturer (Promega) (Hajishengallis et al., 2008, PNAS USA, 105:13532-7). Phosphorylation of GSK313 on Ser9 and total GSK3β were monitored using FACE™ GSK3β ELISA kits (Active Motif).

[2] = system: nitric oxide production; test: NO2− (nitric oxide) production, Griess reaction-based assay, macrophages; assay type: cell-based, mouse; settings: 24 hours; for reversal of the inhibitory C5a effect on nitric oxide: SQ22536 200 μM, H89 5 μM, chelerythrin 5 μM, PKI 6-22 1 μM, KT5823 1 μM, C5a 50 nM
[3] = system: IL-12p70 production; test: IL-12p70 induction in IFN-gamma-primed macrophages, ELISA; assay type: cell-based, mouse; settings: for reversal of C5a inhibition of P. gingivalis- or LPS-induced IL-12p70: C5a 50 nM
Experimental: (§1) Induction of nitric oxide production was assessed by measuring the amount of NO2− (stable metabolite of nitric oxide) in stimulated culture supernatants using a Griess reaction-based assay kit (R&D Systems), as previously performed (Hajishengallis et al., 2008, PNAS USA, 105:13532-7). Levels of cAMP in activated cell extracts were measured using a cAMP enzyme immunoassay kit (Cayman Chemical) (Liang et al., 2007, J. Immunol., 178:4811-9). C5a-induced intracellular calcium mobilization was monitored in cells (4×10^6) loaded with 1 μM Indo 1-AM in the presence of 1 μM pluronic acid, as previously described (Ali et al., 1993, J. Biol. Chem., 268:24247-54). Calcium traces were recorded in a Perkin-Elmer fluorescence spectrometer (Model 650-19) with an excitation wavelength of 355 nm and an emission wavelength of 405 nm. Induction of cytokine production in activated cell culture supernatants or in the peritoneal fluid of infected mice was determined by ELISA using kits from eBioscience or Cell Sciences. C5a levels were measured by sandwich ELISA, employing a pair of capture and biotinylated anti-05a mAbs (BD Pharmingen), according to the manufacturer's protocol.
Whether C5a inhibits P. gingivalis-induced IL-12p70 in peritoneal macrophages was investigated. Since macrophages are generally poor producers of IL-12p70 in vitro unless primed with IFN-gamma, macrophages used in these experiments were primed with IFN-gamma (0.1 μg/ml). […] The host TLR response against P. gingivalis is predominantly mediated by TLR2, both in vitro and in vivo. Therefore, whether C5a-mediated inhibition of P. gingivalis-induced IL-12p70 could involve a C5aR-TLR2 crosstalk additionally was examined.

[4] = system: intracellular cAMP; test: cAMP enzyme immunoassay in P. gingivalis-stimulated macrophages; assay type: cell-based, mouse; settings: C5aRA 1 μM; thapsigargin 1 μM; EGTA 5 mM; pertussis toxin 100 ng/ml; AMD3100 1 μg/ml; C5a 50 nM; 1 hour
[5] = system: phagocytosed P. gingivalis in mouse peritoneal macrophages; assay type: cell-based, P. gingivalis ATCC 33277
Experimental: The viability of phagocytosed P. gingivalis was monitored by an antibiotic protection-based intracellular survival assay, as previously described (Wang et al., 2007, J. Immunol., 179:2349-58). Briefly, mouse peritoneal macrophages were allowed to phagocytose P. gingivalis (MOI=10:1; 5×10^6 bacteria and 5×10^5 cells) for […] at 37° C. This was followed by washing to remove extracellular nonadherent bacteria and 1-hour treatment with antibiotics (300 μg/ml gentamicin and 200 μg/ml metronidazole) to eliminate residual or extracellular adherent bacteria. The macrophages were subsequently cultured overnight (for a total of 24 hours) or for 48 hours Immediately after, the macrophages were washed and lysed in sterile distilled water, and viable counts of internalized P. gingivalis were determined by plating serial dilutions of macrophage lysates on blood agar plates subjected to anaerobic culture.
The viability of phagocytosed P. gingivalis was monitored by an antibiotic protection-based intracellular survival assay, as previously described (Wang et al., 2007, J. Immunol., 179:2349-58)). Briefly, mouse peritoneal macrophages were allowed to phagocytose P. gingivalis (at a MOI=10:1; 5×10^6 bacteria and 5×10^5 macrophages) for 30 min at 37° C. This was followed by washing to remove extracellular nonadherent bacteria and 1-hour treatment with antibiotics (300 μg/ml gentamicin and 200 μg/ml metronidazole) to eliminate residual or extracellular adherent bacteria. The macrophages were subsequently cultured overnight for a total of 24 hours Immediately after, the macrophages were washed and lysed in sterile distilled water and viable counts of internalized P. gingivalis were determined by plating serial dilutions of macrophage lysates on blood agar plates subjected to anaerobic culture.

[6] = system: P. gingivalis; test: Subcutaneous titanium-coil chamber model; assay type: in vivo, mouse; settings: wild-type mice, 24 h post-infection
Experimental: Using the ‘chamber’ model, bacteria were injected into the lumen of a subcutaneously implanted titanium-coil chamber such that bacterial interactions with recruited inflammatory cells can be assessed accurately and quantitatively (Burns et al., 2006, J. Immunol., 177:8296-8300; Genco et al., 1991, Infect. Immun., 59:1255-63; and Graves et al., 2008, J. Clin. Periodontol., 35:89-105).

[7] = system: periodontal inflammatory responses; test: Oral Pg infection, gingival IL-1beta and TNF-alpha mRNA after local C5aRA microinjection; assay type: in vivo, mouse
Experimental: Experiments were performed to determine an effective dose of C5aRA (PMX-53) that inhibits periodontal inflammatory responses. Briefly, 0.1, 1, or 10 μg C5aRA (or a PBS control) were administered through 1-μl microinjections (using a 28.5-gauge MicroFine needle) on the mesial of the first molar and in the papillae between first and second and third molars, on both sides of the maxilla. These treatments were repeated five times at two day-intervals Immediately following each treatment, the mice were infected orally with Pg in 2% carboxymethylcellulose vehicle (or vehicle only). One week after the last infection, the gingiva were dissected and analyzed by real-time quantitative PCR for mRNA expression of IL-1beta and TNF-alpha (selected as the most typically involved in destructive periodontal inflammation).
Because the antagonist was applied before each Pg infection treatment, this approach was considered preventive. In addition, however, it was determined if C5aRA acts in a therapeutic way (i.e., applied after infection and inflammation occurs). […] The mice were euthanized three days after the last treatment.

[8] = system: P. gingivalis; test: I.p. challenge model: P. gingivalis CFU, NO2− and bacteremia; assay type: in vivo, mouse
From the text: All animal procedures were approved by the Institutional Animal Care and Use Committee and performed in compliance with established federal and state policies.

[9] = system: P. gingivalis-induced cytokine production; settings: C5aRA i.p. 25 pg/mouse; 5 h post-infection
Experimental: as §1
10-12 week-old mice were infected i.p. with P. gingivalis (5×10^7 CFU) and sampled by peritoneal lavage to measure production of cytokines and enumerate recovered CFU (following anaerobic growth on blood agar plates) (Hajishengallis et al., 2008, PNAS USA, 105:13532-7), as detailed in the respective figure description.
First, it was essential to determine whether C5aR signaling can regulate P. gingivalis-induced IL-12p70 production in vivo. For this purpose, wild-type mice were i.p.-administered C5aRA followed by i.p. challenge with P. gingivalis. Mice deficient in C5aR or TLR2 were similarly challenged with P. gingivalis, and all mice were sampled 5 h post-infection by peritoneal lavage.

[10] = system: iNOS expression; test: iNOS expression, quantitative real-time PCR, macrophages; assay type: cell-based, mouse; settings: SB216763 10 μM; 8-Br-cAMP 100 μM; 4 hours
Experimental: Gene expression in resting or activated mouse macrophages was quantified using quantitative real-time PCR. Briefly, RNA was extracted from cell lysates using the PerfectPure RNA cell kit (5 Prime, Fisher) and quantified by spectrometry at 260 and 280 nm. The RNA was reverse-transcribed using the High-Capacity cDNA Archive kit (Applied Biosystems) and quantitative real-time PCR with cDNA was performed using the ABI 7500 Fast System, according to the manufacturer's protocol (Applied Biosystems). TaqMan probes, sense primers, and antisense primers for expression of a house-keeping gene (GAPDH) or iNOS (or the genes shown in FIG. 7) were purchased from Applied Biosystems.

[11] = pretreatment 1 μM C5aRA and/or 1 mM L-NAME or D-NAME, Pg with C5a 50 nM, 24 hours
[12] = C5aRA 1 μM, U0126 10 μM, wortmannin 100 nM
[13] = 1 pg applied twice weekly, four times, starting 2 weeks after five oral infections
[14] = 1 μg C5aRA microinjection before each of five Pg infections, one week after last infection

## COc1cccc(-c2cc(=O)c3ccccc3o2)c1N [PD98059]
[1]
  effect on synergistic C5a + P. gingivalis Ser9-phosphorylation of GSK3β: not

## PKI 6-22: peptide inhibitor of PKA
[1]
  effect on synergistic C5a + P. gingivalis Ser9-phosphorylation of GSK3β: inhibited
[2]
  reversal of the inhibitory C5a effect on nitric oxide: reversed

## NC(N)=NCCC[C@H](NC(=O)COCC(c1ccccc1)c1ccccc1)C(=O)O [SB290157]
[3]
  reversal of the inhibitory effect of C5a^desArg on IL-12p70: did not influence

## C/C=C(/C)C(=O)O[C@H]1C(C)=C2[C@H]([C@@H]1OC(=O)CCCCCCC)[C@@](C)(OC(C)=O)C[C@H](OC(=O)CCC)[C@@]1(O)[C@H]2OC(=O)[C@@]1(C)O [thapsigargin]
[4]
  effect on the synergistic C5a effect on P. gingivalis-induced cAMP: abrogated

## COC(=O)[C@@H](N)CCCNC(=N)N[N+](=O)[O-] [L-NAME, N(G)-nitro-L-arginine methyl ester]
[5]; [11]
  effect on C5a-protected P. gingivalis intracellular viability: mimicked C5a and overrode the C5aRA effect

## N#CC(=C(/N)Sc1ccccc1N)/C(C#N)=C(\N)Sc1ccccc1N [U0126]
[3]
  LPS-induced IL-12p70 without C5a: appeared to up-regulate
[3]; [12]
  P. gingivalis-induced IL-12p70 without exogenous C5a: appeared to up-regulate
  reversal of C5a inhibition of P. gingivalis- or LPS-induced IL-12p70: abrogated

## c1cc(CN2CCCNCCNCCCNCC2)ccc1CN1CCCNCCNCCCNCC1 [AMD3100]
[4]
  effect on the synergistic C5a effect on P. gingivalis-induced cAMP: modestly attenuated

## COC(=O)[C@H](N)CCCN=C(N)N[N+](=O)[O-] [D-NAME, N(G)-nitro-D-arginine methyl ester]
[5]
  effect on C5a-protected P. gingivalis intracellular viability: had no effect

## O=S(=O)(NCCNC/C=C/c1ccc(Br)cc1)c1cccc2cnccc12 [H89]
[2]
  reversal of the inhibitory C5a effect on nitric oxide: reversed

## Nc1ncnc2c1ncn2C1CCCO1 (stereo not shown) [SQ22536]
[2]
  reversal of the inhibitory C5a effect on nitric oxide: reversed

## O=C(O)CN(CCOCCOCCN(CC(=O)O)CC(=O)O)CC(=O)O [EGTA]
[4]
  effect on the synergistic C5a effect on P. gingivalis-induced cAMP: relatively minimal and statistically insignificant effect

## acetylated phenylalanine-(ornithine-proline-(D)cyclohexylalanine-tryptophan-arginine) [C5aRA]
[5]; [11]
  effect on C5a-protected P. gingivalis intracellular viability: counteracted the protective effect of C5a
[6]
  Pg viable counts in chamber fluid: reduced Pg viable counts
[7]; [13]
  induction of IL-1beta mRNA in gingiva, therapeutic: significantly reversed induction
  induction of TNF-alpha mRNA in gingiva, therapeutic: significantly reversed induction
[7]; [14]
  induction of IL-1beta mRNA in gingiva, preventive: highly effective in inhibiting induction
  induction of TNF-alpha mRNA in gingiva, preventive: highly effective in inhibiting induction
[7]; IL-1beta and TNF-alpha mRNA, preventive
  efficacy of 1 μg dose compared with 10-fold higher dose: not significantly different
[3]; C5aRA 1 μM
  KDP128-induced IL-12p70 in the absence of exogenously added C5a: had no effect
[3]; [12]
  LPS-induced IL-12p70 without C5a: not seen
  P. gingivalis-induced IL-12p70 without exogenous C5a: significantly enhanced
  reversal of C5a inhibition of P. gingivalis- or LPS-induced IL-12p70: completely reversed
[3]; C5a^desArg 50 nM, C5aRA 1 μM, A8^Δ71-73 1 μM, SB290157 5 μM
  reversal of the inhibitory effect of C5a^desArg on IL-12p70: full reversal
[8]; 24 hours post-infection
  bacteremia (blood culture for P. gingivalis): no bacteremia could be detected
[8]; C5aRA i.p. 25 μg/mouse, 24 h post-infection
  less P. gingivalis CFU in peritoneal lavage fluid compared to PBS control: about 2 log10 units
[8]; C5aRA i.p. 1 mg/Kg body weight, 24 hours post-infection
  reduction of P. gingivalis CFU in peritoneal lavage fluid vs control mice: > 95%
[8]; C5aRA i.p., 24 hours postinfection
  nitric oxide production in peritoneal fluid relative to control mice: elevated nitric oxide production
[9]
  IFN-gamma level in peritoneal fluid vs PBS-treated wild-type controls: significantly higher levels
  IL-12p70 level in peritoneal fluid vs PBS-treated wild-type controls: significantly higher levels
  IL-23 level in peritoneal fluid vs PBS-treated wild-type controls: significantly higher levels
  induction of IL-1beta production in peritoneal fluid: inhibited
  induction of IL-6 production in peritoneal fluid: inhibited
  induction of TNF-alpha production in peritoneal fluid: inhibited
[4]
  effect on the synergistic C5a effect on P. gingivalis-induced cAMP: totally abrogated

## pertussis toxin
[4]
  effect on the synergistic C5a effect on P. gingivalis-induced cAMP: Significant reversal

## Cn1cc(C2=C(c3ccc(Cl)cc3Cl)C(=O)NC2=O)c2ccccc21 [SB216763]
[10]
  P. gingivalis-induced iNOS expression: mimicked the inhibitory C5a effect
[2]; SB216763 10 μM, 8-Br-cAMP 100 μM
  P. gingivalis-induced nitric oxide production: mimicked the inhibitory C5a effect
